The text below walks through data of ChEMBL document CHEMBL3797190, “Development of 3,5-Dinitrobenzylsulfanyl-1,3,4-oxadiazoles and Thiadiazoles as Selective Antitubercular Agents Active Against Replicating and Nonreplicating Mycobacterium tuberculosis” (J Med Chem, 2016).

≈ marks a conversion by molar mass, not a printed value. Where only a bound is given, the exact number is not on record here.

What all share (type): functional
The test system of test [1] is Escherichia coli. Briefly: Antibacterial activity against Escherichia coli ATCC 8739 after 24 to 48 hrs by broth microdilution method. In general terms: Dilution methods test growth across graded concentrations, often in twofold steps.
For test [2], the system named is Mycobacterium avium. Nature of the test: Antimycobacterial activity against Mycobacterium avium CNCTC My 330/88 after 21 days by microdilution method. The settings on record: CNCTC My 330/88, 504 h.
Test [3] deals with Staphylococcus aureus. Briefly: Antibacterial activity against Staphylococcus aureus ATCC 6538 after 24 to 48 hrs by broth microdilution method.
Test [4] concerns Trichophyton mentagrophytes. Briefly: Antifungal activity against Trichophyton mentagrophytes 445 after 72 to 120 hrs by broth microdilution method.
Test [5] deals with Pichia kudriavzevii. Briefly: Antifungal activity against Candida krusei E28 after 24 to 48 hrs by broth microdilution method.
For test [6], the system named is Klebsiella pneumoniae. Nature of the test: Antibacterial activity against ESBL producing Klebsiella pneumoniae J 14368/08 after 24 to 48 hrs by broth microdilution method.
The subject of test [7] is Trichosporon asahii. Briefly: Antifungal activity against Trichosporon asahii 1188 after 24 to 48 hrs by broth microdilution method.
Test [8] has as its system Enterococcus faecalis. Briefly: Antibacterial activity against Enterococcus faecalis J 14365/08 after 24 to 48 hrs by broth microdilution method.
The subject of test [9] is Staphylococcus epidermidis. Briefly: Antibacterial activity against Staphylococcus epidermidis H 6966/08 after 24 to 48 hrs by broth microdilution method.
In test [10] the test system is Lichtheimia corymbifera. Nature of the test: Antifungal activity against Absidia corymbifera 272 after 24 to 48 hrs by broth microdilution method.
Test [11] relates to Aspergillus fumigatus. Briefly: Antifungal activity against Aspergillus fumigatus 231 after 24 to 48 hrs by broth microdilution method.
The test system of test [12] is Candida tropicalis. Nature of the test: Antifungal activity against Candida tropicalis 156 after 24 to 48 hrs by broth microdilution method.
Test [13] relates to Staphylococcus aureus. Briefly: Antibacterial activity against methicillin-resistant Staphylococcus aureus H 5996/08 after 24 to 48 hrs by broth microdilution method.
Test [14] has as its system Candida albicans. Nature of the test: Antifungal activity against Candida albicans ATCC 44859 after 24 to 48 hrs by broth microdilution method.
The test system of test [15] is Nakaseomyces glabratus. Nature of the test: Antifungal activity against Candida glabrata 20/I after 24 to 48 hrs by broth microdilution method.
The test system of test [16] is Pseudomonas aeruginosa. Briefly: Antibacterial activity against Pseudomonas aeruginosa ATCC 9027 after 24 to 48 hrs by broth microdilution method.
For test [17], the system named is Mycobacterium avium. Nature of the test: Antimycobacterial activity against Mycobacterium avium CNCTC My 330/88 after 14 days by microdilution method. The following applies: CNCTC My 330/88, 336 h.
Test [18] relates to Klebsiella pneumoniae. Nature of the test: Antibacterial activity against Klebsiella pneumoniae D 11750/08 after 24 to 48 hrs by broth microdilution method.
For test [19], the system named is Mycobacterium kansasii. Briefly: Antimycobacterial activity against Mycobacterium kansasii CNCTC My 6509/96 after 21 days by microdilution method. The following applies: CNCTC My 6509/96, 504 h.
For test [20], the system named is Mycobacterium tuberculosis. Briefly: Antimycobacterial activity against Mycobacterium tuberculosis CNCTC My 331/88 after 21 days by microdilution method. The settings on record: CNCTC My 331/88, 504 h.
Test [21] concerns Mycobacterium kansasii. Nature of the test: Antimycobacterial activity against Mycobacterium kansasii CNCTC My 6509/96 after 14 days by microdilution method. The settings on record: CNCTC My 6509/96, 336 h.
Test [22] relates to Mycobacterium kansasii. Nature of the test: Antimycobacterial activity against Mycobacterium kansasii CNCTC My 235/80 after 21 days by microdilution method. The settings on record: CNCTC My 235/80, 504 h.
Test [23] deals with Mycobacterium kansasii. Nature of the test: Antimycobacterial activity against Mycobacterium kansasii CNCTC My 235/80 after 14 days by microdilution method. The following applies: CNCTC My 235/80, 336 h.
The subject of test [24] is Mycobacterium tuberculosis. Nature of the test: Antimycobacterial activity against Mycobacterium tuberculosis CNCTC My 331/88 after 14 days by microdilution method. The following applies: CNCTC My 331/88, 336 h.
Test [25] deals with Mycobacterium kansasii. Nature of the test: Antimycobacterial activity against Mycobacterium kansasii CNCTC My 235/80 after 7 days by microdilution method. The following applies: CNCTC My 235/80, 168 h.
Test [26] concerns Mycobacterium kansasii. Briefly: Antimycobacterial activity against Mycobacterium kansasii CNCTC My 6509/96 after 7 days by microdilution method. The settings on record: CNCTC My 6509/96, 168 h.

The term MIC99 denotes an inhibitory concentration at the 99% level, which refers to growth in some studies and to a panel of isolates in others. The MIC50 is the lowest concentration that inhibits either 50% of growth or 50% of the strains tested, depending on the study. A lower MIC50 goes with higher susceptibility. In general, MIC80 refers to an inhibitory concentration at the 80% level, which refers to growth in some studies and to a panel of isolates in others. Consider `O=[N+]([O-])c1cc(CSc2nnc(-c3ccc(Cl)cc3)o2)cc([N+](=O)[O-])c1`, for which the MIC95 in [1], in test [3], in [6], in test [8], in [9] and in [13] was above 125 µM throughout. Moreover, the MIC95 in test [16] and in test [18] was above 125 µM in each case. Besides, the figures for the MIC99 in test [2], in test [17] and in [19] were above 125 µM, above 125 µM and 0.5 µM (≈ 0.196 µg/mL), respectively. Besides, the MIC50 in test [4], in test [10] and in test [11] was above 125 µM throughout. The MIC80 in [5], in test [7], in test [12], in test [14] and in test [15] was above 125 µM in each case.
`O=[N+]([O-])c1ccc(CSc2nnc(-c3ccc(Cl)cc3)s2)c([N+](=O)[O-])c1`: the MIC95 in test [1], in [3], in test [6], in test [8], in test [9] and in test [13] was above 125 µM throughout. The MIC95 in test [16] and in [18] was above 125 µM throughout. For the same compound, the MIC99 was 8 µM (≈ 3.27 µg/mL) in test [2]; 4 µM (≈ 1.64 µg/mL) in test [20]; 2 µM (≈ 0.818 µg/mL) in [21]; 4 µM (≈ 1.64 µg/mL) in test [22]; 2 µM (≈ 0.818 µg/mL) in test [23]; 2 µM (≈ 0.818 µg/mL) in [24]. Also, the MIC99 in test [25] was found to be 1 µM (≈ 0.409 µg/mL); in test [17], 4 µM (≈ 1.64 µg/mL); in test [26] it was 1 µM (≈ 0.409 µg/mL); in [19], 4 µM (≈ 1.64 µg/mL). Also, the MIC50 in test [4], in test [10] and in test [11] was above 125 µM in each case. In addition, the MIC80 in test [5], in test [7], in test [12], in test [14] and in [15] was above 125 µM in each case.
Consider `CCCCCCCCCCCc1nnc(SCc2cc([N+](=O)[O-])cc([N+](=O)[O-])c2)o1`, for which the MIC95 in test [1], in test [3], in test [6], in test [8], in test [9] and in [13] was above 125 µM throughout. In addition, the MIC95 in test [16] and in test [18] was above 125 µM each time. The MIC99 in test [2] came out at 8 µM (≈ 3.49 µg/mL); in [20] it was 0.25 µM (≈ 0.109 µg/mL); in [21], 0.25 µM (≈ 0.109 µg/mL); in test [22], 0.25 µM (≈ 0.109 µg/mL); in [23], 0.25 µM (≈ 0.109 µg/mL); in test [24] it was 0.25 µM (≈ 0.109 µg/mL). In addition, the MIC99 was determined as 0.125 µM (≈ 0.0546 µg/mL) in test [25], 4 µM (≈ 1.75 µg/mL) in test [17], 0.25 µM (≈ 0.109 µg/mL) in test [26] and 0.25 µM (≈ 0.109 µg/mL) in test [19]. The MIC50 in [4], in [10] and in test [11] was above 125 µM each time. The MIC80 in test [5], in test [7], in test [12], in test [14] and in test [15] was above 125 µM in each case.
Regarding `Cc1ccc(-c2nnc(SCc3cc([N+](=O)[O-])cc([N+](=O)[O-])c3)s2)cc1`, the MIC99 in test [2] is above 125 µM; in [20], 0.125 µM (≈ 0.0486 µg/mL); in test [21] it was 1 µM (≈ 0.388 µg/mL); in test [22], 1 µM (≈ 0.388 µg/mL); in [23], 0.5 µM (≈ 0.194 µg/mL); in test [24], 0.125 µM (≈ 0.0486 µg/mL). Also, the MIC99 in [25] is 0.5 µM (≈ 0.194 µg/mL); in [17] it was above 125 µM; in test [26] it was 0.5 µM (≈ 0.194 µg/mL); in test [19] it was 2 µM (≈ 0.777 µg/mL).
Take `O=[N+]([O-])c1ccc(CSc2nnc(-c3ccc(Cl)cc3)o2)c([N+](=O)[O-])c1`: the MIC95 in test [1], in test [3], in test [6], in [8], in [9] and in test [13] was above 125 µM each time. Also, the MIC95 in [16] and in test [18] was above 125 µM in each case. Further, the MIC99 in test [2] came out at 16 µM (≈ 6.28 µg/mL); in test [20], 2 µM (≈ 0.786 µg/mL); in test [21] it was 8 µM (≈ 3.14 µg/mL); in test [22] it was 4 µM (≈ 1.57 µg/mL); in test [23], 4 µM (≈ 1.57 µg/mL); in test [24] it was 2 µM (≈ 0.786 µg/mL). Also, the MIC99 in test [25] stood at 2 µM (≈ 0.786 µg/mL); in test [17], 8 µM (≈ 3.14 µg/mL); in [26], 4 µM (≈ 1.57 µg/mL); in test [19], 8 µM (≈ 3.14 µg/mL). In addition, the MIC50 in [4], in [10] and in [11] was above 125 µM each time. Besides, the MIC80 in test [5], in test [7], in test [12], in test [14] and in test [15] was above 125 µM each time.
On to `O=[N+]([O-])c1cc(CSc2nnc(-c3ccc(Cl)cc3)o2)cc(C(F)(F)F)c1`, for which the MIC99 in test [2] was above 500 µM; in [20], above 32 µM; in [21] it was above 32 µM; in [22] it was above 32 µM; in test [23] it was above 32 µM; in [24], above 32 µM. Further, the MIC99 in [25] was above 32 µM; in test [17], above 500 µM; in test [26], above 32 µM; in test [19], above 32 µM.
In the case of `O=[N+]([O-])c1cc(CSc2nnc(-c3ccccc3Cl)s2)cc([N+](=O)[O-])c1`, the MIC99 in test [2] was above 16 µM; in [20] it was 0.125 µM (≈ 0.0511 µg/mL); in test [21] it was 1 µM (≈ 0.409 µg/mL); in test [22], 1 µM (≈ 0.409 µg/mL); in [23], 1 µM (≈ 0.409 µg/mL); in test [24], 0.125 µM (≈ 0.0511 µg/mL). Also, the MIC99 in test [25] came out at 0.5 µM (≈ 0.204 µg/mL); in [17], 16 µM (≈ 6.54 µg/mL); in test [26], 0.5 µM (≈ 0.204 µg/mL); in [19], 1 µM (≈ 0.409 µg/mL).
With `O=[N+]([O-])c1cc(CSc2nnc(-c3ccncc3)o2)cc([N+](=O)[O-])c1`, the MIC99 was determined as 62 µM (≈ 22.3 µg/mL) in [2]; 0.5 µM (≈ 0.18 µg/mL) in test [20]; 2 µM (≈ 0.719 µg/mL) in [21]; 2 µM (≈ 0.719 µg/mL) in [22]; 2 µM (≈ 0.719 µg/mL) in test [23]; 0.5 µM (≈ 0.18 µg/mL) in test [24]. Also, the MIC99 in [25] came to 1 µM (≈ 0.359 µg/mL); in test [17], 62 µM (≈ 22.3 µg/mL); in test [26] it was 2 µM (≈ 0.719 µg/mL); in test [19], 4 µM (≈ 1.44 µg/mL).
With `O=[N+]([O-])c1cc(CSc2nnc(-c3ccccc3Cl)o2)cc([N+](=O)[O-])c1`, the MIC99 in test [2] amounted to 32 µM (≈ 12.6 µg/mL); in [20], 0.125 µM (≈ 0.0491 µg/mL); in test [21], 0.5 µM (≈ 0.196 µg/mL); in test [22] it was 0.5 µM (≈ 0.196 µg/mL); in [23] it was 0.25 µM (≈ 0.0982 µg/mL); in [24], 0.125 µM (≈ 0.0491 µg/mL). Besides, the MIC99 is 0.125 µM (≈ 0.0491 µg/mL) in test [25], 16 µM (≈ 6.28 µg/mL) in test [17], 0.125 µM (≈ 0.0491 µg/mL) in test [26] and 1 µM (≈ 0.393 µg/mL) in test [19].
